The term Ki denotes the equilibrium dissociation constant of an inhibitor or competing ligand from its target.

T1 sequence (P33535 whole entry): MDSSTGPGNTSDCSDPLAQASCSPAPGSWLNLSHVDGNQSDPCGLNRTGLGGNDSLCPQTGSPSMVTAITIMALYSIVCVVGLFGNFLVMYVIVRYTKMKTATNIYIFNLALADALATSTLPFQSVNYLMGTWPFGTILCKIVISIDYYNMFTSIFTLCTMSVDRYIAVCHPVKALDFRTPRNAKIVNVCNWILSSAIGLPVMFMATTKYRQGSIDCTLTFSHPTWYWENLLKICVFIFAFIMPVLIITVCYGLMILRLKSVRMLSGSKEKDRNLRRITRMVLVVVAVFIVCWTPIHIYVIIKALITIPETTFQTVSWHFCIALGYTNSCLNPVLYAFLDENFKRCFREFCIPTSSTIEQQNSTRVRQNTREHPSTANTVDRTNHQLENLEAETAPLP

The first experiment concerns the target T1, μ-opioid receptor (Rattus norvegicus, UniProt P33535).
T1 construct: the forebrains are homogenized in Tris buffer in a Teflon®-glass homogenizer; from tissue; host or cells: forebrain of male Wistar rats (particulate membrane preparation)
The experiment in a line: Rat brain μ-opioid receptor binding assay ([3H]DAMGO). Conditions: 10 nM solutions of the compounds, read-out: MOR binding Ki. Here is the method: Rat Brain μ-Opioid Receptor Binding Assay
Male, Wistar rats (150-250 g, VAF, Charles River, Kingston, N.Y.) are killed by cervical dislocation and their brains removed and placed immediately in ice cold Tris HCl buffer (50 mM, pH 7.4). The forebrains are separated from the remainder of the brain by a coronal transection, beginning dorsally at the colliculi and passing ventrally through the midbrain-pontine junction. After dissection, the forebrains are homogenized in Tris buffer in a Teflon®-glass homogenizer. The homogenate is diluted to a concentration of 1 g of forebrain tissue per 100 mL Tris buffer and centrifuged at 39,000×G for 10 min. The pellet is resuspended in the same volume of Tris buffer with several brief pulses from a Polytron homogenizer. This particulate preparation is used for the μ-opioid binding assays. […] The tubes and filters are rinsed three times with 4 mL of 10 mM HEPES (pH 7.4) and the radioactivity associated with the filter circles determined using Formula 989 scintillation fluid (New England Nuclear, Boston, Mass.) in a scintillation counter.
The data are used to calculate either the % inhibition compared to control binding (when only a single concentration of test compound is evaluated) or a Ki value (when a range of concentrations is tested).
% Inhibition is calculated as follows: [formula]
Ki value is calculated using the LIGAND (Munson, P. J. and Rodbard, D., Anal. Biochem. 107: 220-239, 1980) data analysis program.
Turning to `CCNC(=O)c1ccc(C(=C2CC3CCC(C2)N3Cc2ccsc2)c2cnc3ccccc3c2)cc1` [Cpd 15], the Ki came out at 127 nM.

In the case of `CCNC(=O)c1ccc(C(Br)=C2CC3CCC(C2)N3Cc2sccc2C)cc1` [Cpd 28], the Ki worked out at 69.6 nM.

With `CCNC(=O)c1ccc(C(=C2CC3CCC(C2)N3Cc2ccc3ccccc3n2)c2ccccn2)cc1` [Cpd 13], the Ki was found to be 123 nM.

`CCNC(=O)c1ccc(C(=C2CC3CCC(C2)N3Cc2ccoc2)c2ccc([N+](=O)[O-])cc2)cc1` [Cpd 126]: the Ki came to 1.45 nM.

`CCNC(=O)c1ccc(C(=C2CC3CCC(C2)N3Cc2ccco2)c2cnc3ccccc3c2)cc1` [Cpd 16]: the Ki worked out at 82 nM.

Regarding `CCNC(=O)c1ccc(C(Br)=C2CC3CCC(C2)N3Cc2c[nH]cn2)cc1` [Cpd 39], the Ki is 83.7 nM.

For the compound `CCNC(=O)c1ccc(C(=C2CC3CCC(C2)N3Cc2ccc(C(=O)O)o2)c2ccccc2)cc1` [Cpd 95], the Ki came to 421 nM.

As to `CCNC(=O)c1ccc(C(=C2CC3CCC(C2)N3CC=C(C)C)c2cccc(C(=O)O)c2)cc1` (single isomer, unassigned) [Cpd 45], the Ki was 23.7 nM.

In the case of `CCNC(=O)c1ccc(C(Br)=C2CC3CCC(C2)N3Cc2ccsc2)cc1` [Cpd 23], the Ki was 6.23 nM.

For `CCNC(=O)c1ccc(C(=C2CC3CCC(C2)N3CC=C(C)C)c2nnn[nH]2)cc1` [Cpd 147], the Ki worked out at 109 nM.

On to `CCNC(=O)c1ccc(C(=C2CC3CCC(C2)N3Cc2ccco2)c2ccc(C(=O)O)cc2)cc1` [Cpd 96], for which the Ki amounted to 63.5 nM.

Consider `CCNC(=O)c1ccc(C(=C2CC3CCC(C2)N3CC=C(C)C)c2ccc(CO)cc2)cc1` [Cpd 194], for which the Ki stood at 3.67 nM.

Consider `CCNC(=O)c1ccc(C=C2CC3CCC(C2)N3Cc2sc3ccccc3c2C)cc1` [Cpd 78], for which the Ki came out at 271 nM.

For the compound `CCNC(=O)c1ccc(C(=C2CC3CCC(C2)N3CCc2ccccc2)c2ccc(CCC(=O)O)cc2)cc1` [Cpd 135], the Ki turned out to be 318 nM.

The experiment is the same for the next values; noted with them: MOR binding Ki.
Turning to `CCNC(=O)c1ccc(C(=C2CC3CCC(C2)N3CCc2ccccc2)c2nnn[nH]2)cc1` [Cpd 149], the Ki came out at 63.7 nM.

In turn, `CCNC(=O)c1ccc(C(=C2CC3CCC(C2)N3Cc2ccoc2)c2nnn[nH]2)cc1` [Cpd 144] registered a Ki of 212 nM.

In the case of `CCNC(=O)c1ccc(C(=C2CC3CCC(C2)N3Cc2ccc(NC(C)=O)cc2)c2ccc3c(c2)OCO3)cc1` [Cpd 5], the Ki was found to be 73 nM.

Consider `CCNC(=O)c1ccc(C(=C2CC3CCC(C2)N3Cc2ccco2)c2ccc(CC(N)C(=O)O)cc2)cc1` (stereo not shown) [Cpd 124], for which affinity was put at a Ki of 94.6 nM.

For `CCNC(=O)c1ccc(C(=C2CC3CCC(C2)N3Cc2ccc3c(c2)OCO3)c2cccc3cccnc23)cc1` [Cpd 69], the Ki worked out at 133 nM.

Take `CCNC(=O)c1ccc(C(=C2CC3CCC(C2)N3CC#N)c2ccccc2)cc1` [Cpd 43, 4-[(8-Cyanomethyl-8-aza-bicyclo[3.2.1]oct-3-ylidene)-phenyl-methyl]-N-ethyl-benzamide]: the Ki amounted to 721 nM.

For `CCNC(=O)c1ccc(C(=C2CC3CCC(C2)N3Cc2nccs2)c2ccc(C(=O)O)cc2)cc1` [Cpd 174], affinity was put at a Ki of 304 nM.

`CCNC(=O)c1ccc(C(=C2CC3CCC(C2)N3C(=O)Cc2ccccc2)c2cccnc2)cc1` [Cpd 200, N-Ethyl-4-[(8-phenylacetyl-8-aza-bicyclo[3.2.1]oct-3-ylidene)-pyridin-3-yl-methyl]-benzamide] registered a Ki of 13.3 nM.

As to `CCNC(=O)c1ccc(C(=C2CC3CCC(C2)N3CCN2CCN(C(=O)OC)CC2)c2ccccc2)cc1` [Cpd 91, 4-(2-{3-[(4-Ethylcarbamoylphenyl)-phenylmethylene]-8-azabicyclo[3.2.1]oct-8-yl}-ethyl)piperazine-1-carboxylic acid methyl ester], the affinity, expressed as Ki, was 175 nM.

In turn, `CCNC(=O)c1ccc(C(=C2CC3CCC(C2)N3Cc2nccs2)c2ccc(NS(C)(=O)=O)cc2)cc1` [Cpd 187] gave a Ki of 121 nM.

On to `CCNC(=O)c1ccc(C=C2CC3CCC(C2)N3Cc2c[nH]cn2)cc1` [Cpd 46], for which affinity was put at a Ki of 5480 nM.

`CCNC(=O)c1ccc(C(=C2CC3CCC(C2)N3)c2nnn[nH]2)cc1` (single isomer, unassigned) [Cpd 202] registered a Ki of 8120 nM.

With `CCNC(=O)c1ccc(C(=C2CC3CCC(C2)N3Cc2ccccn2)c2cnc3ccccc3c2)cc1` [Cpd 66], the Ki was 142 nM.

In turn, `CCNC(=O)c1ccc(C(=C2CC3CCC(C2)N3Cc2ccccn2)c2cccc3cccnc23)cc1` [Cpd 70] came in with a Ki of 41.1 nM.

`CCNC(=O)c1ccc(C(=C2CC3CCC(C2)N3Cc2ccsc2)c2cccc(-c3nnn[nH]3)c2)cc1` (single isomer, unassigned) [Cpd 215] returned a Ki of 3120 nM.

For the compound `CCNC(=O)c1ccc(C(=C2C[C@H]3CC[C@@H](C2)N3C(=O)Cc2ccccc2)c2cccnc2)cc1` (single isomer, unassigned) [Cpd 217], the Ki was 3.07 nM.

`CCNC(=O)c1ccc(C(=C2CC3CCC(C2)N3Cc2ccc3ccccc3n2)c2cccnc2)cc1` [Cpd 71] registered an inhibition constant (Ki) of 14.6 nM.

In turn, `CCNC(=O)c1ccc(C(=C2CC3CCC(C2)N3Cc2nnn[nH]2)c2ccccc2)cc1` [Cpd 90, N-Ethyl-4-{phenyl-[8-(1H-tetrazol-5-ylmethyl)-8-aza-bicyclo[3.2.1]oct-3-ylidene]-methyl}-benzamide] yielded a Ki of 406 nM.

For the compound `CCNC(=O)c1ccc(C(=C2CC3CCC(C2)N3Cc2ccc3ccccc3n2)c2cnccn2)cc1` [Cpd 30], the Ki amounted to 15 nM.

For the compound `CCNC(=O)c1ccc(C(=C2CC3CCC(C2)N3Cc2ccoc2)c2cc(C(=O)O)cc([N+](=O)[O-])c2)cc1` [Cpd 152], the Ki came out at 12.2 nM.

For the compound `CCNC(=O)c1ccc(C(=C2CC3CCC(C2)N3Cc2ccsc2)c2cccc(-c3nnn[nH]3)c2)cc1` (single isomer, unassigned) [Cpd 216], the Ki worked out at 12.1 nM.

With `CCNC(=O)c1ccc(C=C2C[C@H]3CC[C@@H](C2)N3CCc2ccccc2)cc1` (single isomer, unassigned) [Cpd 42, (−)—N-Ethyl-4-(8-phenethyl-8-aza-bicyclo[3.2.1]oct-3-ylidenemethyl)-benzamide], the Ki amounted to 5.99 nM.

The compound `CCNC(=O)c1ccc(C(=C2CC3CCC(C2)N3Cc2ccsc2)c2cccc(CO)c2)cc1` [Cpd 189] showed a Ki of 13.7 nM.

Compound `CCNC(=O)c1ccc(C(=C2CC3CCC(C2)N3)c2nnn[nH]2)cc1` (single isomer, unassigned) [Cpd 201] yielded a Ki of 12300 nM.

With `CCNC(=O)c1ccc(C(=C2CC3CCC(C2)N3Cc2ccsc2)c2ccc(S(N)(=O)=O)cc2)cc1` [Cpd 139], the Ki came to 1.54 nM.

Regarding `CCNC(=O)c1ccc(C(=C2CC3CCC(C2)N3Cc2cccc(C(=O)O)c2)c2ccccc2)cc1` [Cpd 93], affinity was put at a Ki of 280 nM.

`CCNC(=O)c1ccc(C(=C2CC3CCC(C2)N3Cc2nccs2)c2nnn[nH]2)cc1` [Cpd 150] showed a Ki of 73.8 nM.

As for `CCNC(=O)c1ccc(C=C2CC3CCC(C2)N3Cc2ccc3c(c2)OCO3)cc1` [Cpd 54], affinity was put at a Ki of 130 nM.

As for `CCNC(=O)c1ccc(C(=C2C[C@H]3CC[C@@H](C2)N3Cc2ccsc2)c2ccc(CO)cc2)cc1` (single isomer, unassigned) [Cpd 196, N-Ethyl-4-[(4-hydroxymethyl-phenyl)-(8-thiophen-3-ylmethyl-8-aza-bicyclo[3.2.1]oct-3-ylidene)-methyl]-benzamide], the Ki was 4.1 nM.

`CCNC(=O)c1ccc(C(Br)=C2CC3CCC(C2)N3Cc2cccs2)cc1` [Cpd 40] came in with a Ki of 8.97 nM.

For the compound `CCNC(=O)c1ccc(C(=C2CC3CCC(C2)N3Cc2nccs2)c2cc(C(=O)O)cc([N+](=O)[O-])c2)cc1` [Cpd 159], the Ki stood at 13.5 nM.

In turn, `CCNC(=O)c1ccc(C(Br)=C2CC3CCC(C2)N3Cc2ccoc2)cc1` [Cpd 26] showed a Ki of 1.86 nM.

`CCNC(=O)c1ccc(C(=C2CC3CCC(C2)N3Cc2sccc2C)c2ccc3c(c2)OCO3)cc1` [Cpd 12] gave a Ki of 128 nM.

In turn, `CCNC(=O)c1ccc(C(=C2C[C@H]3CC[C@@H](C2)N3C(=O)Cc2ccccc2)c2cccnc2)cc1` [Cpd 218, N-Ethyl-4-[((1S,5R)-8-phenylacetyl-8-aza-bicyclo[3.2.1]oct-3-ylidene)-pyridin-3-yl-methyl]-benzamide] came in with a Ki of 3.54 nM.

Consider `CCNC(=O)c1ccc(C=C2CC3CCC(C2)N3Cc2cccnc2)cc1` [Cpd 57], for which the affinity corresponds to a Ki of 1410 nM.

`CCNC(=O)c1ccc(C(=C2CC3CCC(C2)N3Cc2nccs2)c2ccc(CC(N)C(=O)O)cc2)cc1` (stereo not shown) [Cpd 131]: the Ki was found to be 152 nM.

Compound `CCNC(=O)c1ccc(C(=C2CC3CCC(C2)N3Cc2ncc[nH]2)c2ccc3c(c2)OCO3)cc1` [Cpd 6] showed a Ki of 35.8 nM.

In turn, `CCNC(=O)c1ccc(C=C2CC3CCC(C2)N3Cc2ccccn2)cc1` [Cpd 56] yielded a Ki of 1500 nM.

For the compound `CCNC(=O)c1ccc(C(Br)=C2CC3CCC(C2)N3Cc2ccoc2)cc1` (single isomer, unassigned) [Cpd 211], affinity was put at a Ki of 0.23 nM.

The compound `CCNC(=O)c1ccc(C=C2CC3CCC(C2)N3CCc2ccccc2)cc1` [Cpd 50, N-Ethyl-4-(8-phenethyl-8-aza-bicyclo[3.2.1]oct-3-ylidenemethyl)-benzamide] registered a Ki of 44.3 nM.

In the case of `CCNC(=O)c1ccc(C(=C2CC3CCC(C2)N3Cc2ccco2)c2cccc(CO)c2)cc1` [Cpd 179], the Ki was 8.43 nM.

For the origin of these results see patent US20050004163A1, “3-(diarylmethylene)-8-azabicyclo[3.2.1]octane derivatives” (priority 2000, published 2005).
